According to patent US20240082221A1, “COMPOSITIONS AND METHODS FOR THE IDENTIFICATION OF COMPOUNDS THAT PROTECT AGAINST LIPOFUSCIN CYTOTOXICITY” (priority 2021, published 2024):
“Also recorded” adds a separate entry of the source.

Experiments:
ARPE-19 cells [1] = tested on: ARPE-19 cells
Method: Cell Viability Assay. […] 1× AlamarBlue solution prepared in OptiMEM was used to replace the media supernatant and the plate's fluorescence was determined at 555 nm excitation/585 nm emission with a SpectraMax M (Molecular Devices, CA, USA), after 1 h. […] The exact timing of appearance of far-red (DRAQ7=plasma membrane leakage) and blue (NUC405=caspase 3 activation) fluorescence signals was critical to differentiate apoptosis and necrosis from secondary events, such as membrane damage and generalized proteolytic activation during the late phase of apoptosis and necrosis, respectively.
Real time monitoring of necrotic and apoptotic cell-death. Cell-death assay to study Lipofuscin's dark toxicity was performed. 90% confluent ARPE-19 or hfRPE were incubated overnight in serum free media supplemented with indicated LB concentration. Viability was assessed at 24 hrs by AlamarBlue®, or microscopy with NUC405/DRAQ7. Real time monitoring of necrotic (red) and apoptotic (blue) cell-death was performed by automated fluorescence microscopy. The exact timing of appearance of far-red (DRAQ7=plasma membrane leakage) and blue (NUC405=caspase 3 activation) fluorescence signals was critical to differentiate apoptosis and necrosis from secondary events, such as membrane damage and generalized proteolytic activation during the late phase of apoptosis and necrosis, respectively.
Chemical inhibitors. Chemical inhibitors used in this study are described in FIG. 12.

human MLKL = assay: Western blot of Ser358 phospho-MLKL, phosphorylation and polymerization of MLKL; format: cell-based; conditions: absence of light
Method: (§1) Immunoblotting. Total cell lysates were extracted using RIPA lysis buffer (50 mM TrisHCl, Ph 8.0, 150 mM NaCl, 1% NP40, 0.5% Sodium Deoxycholate, 0.1% SDS, protease-phosphatase inhibitor) after the incubation of the specific sample group in a 48 well plate. Sonication or syringing (20 times) was done followed by centrifugation at 12,000×g for 10 mins and the supernatant was collected and stored in −80° C. Proten concentration from homogenates were assessed by Pierce Rapid Gold BCA protein assay kit (ThermoFisher Scientific, cat.no. A53225). Then 30 μg of protein was analyzed by standard SDS-PAGE gel. Samples were mixed 4:1 (v:v) with Nupage loading buffer with or without 8% 0-mercaptoethanol and heated for 10 min at 72° C. SDS-PAGE was done using 4-12% Nupage gel and buffer (Life, NP0335BOX). Next, SDS-PAGE gel was transferred to nitrocellulose membrane (Whatman, PROTAN BA83) overnight at 20V. The following day, 5% milk in TBS was used for 2 h blocking the membrane and then primary antibody was added in TBST (TBS, 0.1% Tween-20) for overnight at 4° C. Next day membranes were washed and incubated for 2 hours at room temperature with HRP conjugated secondary antibody (cat #G21234, Invitrogen) at 1:10,000 dilution. After 3 more washed membranes were probed with enhanced chemiluminescence (ECL) reagent and detected using an X-ray films for chemiluminescence image (GE healthcare, RPN2106). Scanning/imaging and quantitation of the image was done using silverfast 8 application software and Fiji Image J. Antibodies for Western blotting were list in FIG. 10.
For its phosphorylation, MLKL and its kinase need to be recruited into multiprotein complexes, known as necrosomes (FIG. 4O). Necrosomes are not well conserved among species and vary also with the nature of the stimuli that triggers their formation. […] Considering that phosphorylation of human MLKL at Ser358 (pMLKL), is a hallmark triggering event and marker of necroptosis, the Ser358-phosphorylation and polymerization status of MLKL in cells with LF was determined. […] A prerequisite for the assembly of these RIP kinases into necrosomes was their phosphorylation.

IRE1α [2] = assay: qPCR of spliced XBP1 (XBP1s) as readout of IRE1α activity in ARPE-19; format: cell-based, Human
Description: RNA isolation and quantitative PCR. Total RNA was extracted from cultured cells or mouse eye RPE layer using the RNeasy Mini kit (QIAGEN). The total RNA was digested with deoxyribonuclease I to prevent amplification of genomic DNA. The total RNA then was reversed transcribed using High-Capacity cDNA Reverse Transcription Kit (ThermoFisher Scientific, cat.no. 4368814) and analyzed gene expression using SYBR Green Master Mix (ThermoFisher Scientific, cat.no. 4472908) in an Applied Biosystems StepOne real time PCR machine. GAPDH was used as a reference gene. […] After genes were amplified by real time PCR, some of the PCR products were separated by 2.5% agarose gel.

cathepsin D = format: cell-based
Description: (§2) Next, A2E buildups were imaged using a combination of DIC and fluorescence: A2E appeared as granules with well-defined edges, both within cells or after drying over a coverslip (FIGS. 14D and 14E). Next, the ability of the suspected A2E crystals to damage lysosomal membranes was investigated. A recently developed galectin-3 puncta assay for early detection of lysosomal membrane permeabilization (LMP) was used. Briefly, cytosolic galectin-3 rapidly binds to the glycocalyx in the luminal face of lysosomal membranes as they become leaky, which is easily detectable with anti-galectin high-affinity antibodies. L-Leucyl-L-Leucine methyl ester (LLO) a lysosomotropic peptide that causes LMP was used as positive control of puncta formation (FIG. 14E). […] LMP was confirmed by showing the […] of cathepsin D, as surrogate of lysosomal enzymes. […] Also, very remarkable was the observation that the same unique pattern of protection with arimoclomol and Nec-7 but not Nec-1 was observable for LLO (FIG. 14K), consistent with the idea that necroptosis by A2E is being caused by LMP.

lysosomal membranes = format: cell-based
Description: as §2

[3] = Detection of lipid bisretinoids aggregation by filter passage; format: physicochemical
Description: Detection of lipid bisretinoids aggregation.

[4] = tested on: UPR (PERK and ATF6 branches); assay: Western blot of ER-stress markers (p-eIF2a, ATF4, BiP, ATF6) without illumination; format: cell-based, Human
Method: as §1
The causal link between LF accumulation and ER-stress without light assistance was analyzed (FIG. 6A). […] The activation of the IRE1α branch was visualized by qPCR.

Oxidative damage by H2O2 = format: cell-based
IRE1α [5] = assay: Western blot of light-independent phosphorylation of IRE1α induced by LF; format: cell-based
Method: as §1, with “The following day, 5% milk in TBS was used for 2 h blocking the membrane and then primary antibody was added in TBST (TBS, 0.1% Tween-20) for overnight at 4° C. Next day membranes were washed and incubated for 2 hours at room temperature with HRP conjugated secondary antibody (cat #G21234, Invitrogen) at 1:10,000 dilution.” left out

pMLKL = assay: Fluorescence microscopy of pMLKL plasma membrane translocation in ARPE-19 monolayers; format: cell-based, Human; conditions: ARPE-19 with A2E or ATRD
Description: Chronic accumulation of polymeric pMLKL could account for progressive damage in pigmented retinas as they amass LF.

ARPE-19 cells [6] = assay: Blue-light phototoxicity of A2E-loaded cells, AlamarBlue; format: cell-based, Human; conditions: A2E 5 μM O/N, blue light 10 min, viability after 24 hrs
Method: FIG. 18A: ARPE19 cells were pretreated for 1 hr with the […] of: eIF2a (Salubrinal (SAL), SAL003, or Guanabenz); eIF4 (Briciclib or eFT508); mTOR (Rapamycin, Torin-1); or the unspecific protein translation inhibitor (Cyclohexamide CHX) and then incubated with lethal doses of A2E (25 μM) for an additional 24 hrs in the presence of these drugs. Viability was assessed with AlamarBlue®. […] Viability was assessed with AlamarBlue®. […] ARPE-19 cells were incubated O/N with a non-toxic amount of A2E (5 μM) to allow its incorporation into lysosomes and after changing the media for PBS and irradiating for 10 min with blue light cells were maintained for an additional 24 hrs in Optimem before evaluating viability, using AlamarBlue®. FIG. 18D: Fluorescence microscopy of cells incubated with lethal amounts of A2E (25 μM) in Optimem for 24 hrs. Green fluorescence corresponds to A2E deposits. Nuclei are stained with the DNA dye, Hoechst, in viable cells (blue) and with Hoechst and DRAQ7 (a DNA dye that only enter cells with disrupted membranes) in dead cells (purple).
Blue light treatment. ARPE19 cells were grown at 70% confluence and were treated with or without 20 μM A2E in culture medium for 24 h. Then, HBSS replaced the cell culture medium before blue light treatment. ARPE19 cells with or without A2E intake, were illuminated by 460+20 nm wavelength light for 20 min.

CC(C=CC1=C(C)CCCC1(C)C)=CC=CC(C)=Cc1cc(C=CC=C(C)C=CC2=C(C)CCCC2(C)C)cc[n+]1CCO [A2E, N-retinylidene-N-retinylethanolamine]
cell death in ARPE19 cells exposed to the substance (ARPE-19 cells [1]; light-independent): Dose dependent cell death
induction of phosphorylation and polymerization of MLKL (human MLKL): dose-dependent phosphorylation and polymerization of MLKL
induction of XBP1s (IRE1α [2]; in the dark, qPCR): dose and time-dependent inductions of XBP1s
cathepsin-D activity (cathepsin D): caused reduction in cathepsin-D activity
lysosomal membrane permeabilization (galectin-3 puncta) (lysosomal membranes): clearly caused puncta staining and therefore LMP
passage through 3 μm filter in aqueous milieu ([3]; 3 μm cut-off, same material): did cross membranes with 3 μm cut-off
passage through 0.45 μm filter in aqueous milieu ([3]; 450 nm filter pores): could not move across 450 nm filter pores
cleavage of ATF6 ([4]; 6 hrs treatment, 20 μM A2E): significant cleavage
Ser51 phosphorylation of eIF2a ([4]; without light): strongest Ser51 phosphorylation of eIF2a

CC(=O)N[C@@H](CS)C(=O)O [NAC, N-acetyl cysteine]
prevention of oxidative damage by H2O2 (Oxidative damage by H2O2): effectively prevented oxidative damage by H2O2
light-independent phosphorylation of IRE1α induced by LF in presence of antioxidant (IRE1α [5]): proceeded unaffected

O=C(/C=C/c1ccccc1)NC(NC(=S)Nc1cccc2cccnc12)C(Cl)(Cl)Cl (stereo not shown) [Salubrinal]
protection against lethal doses of A2E, viability (ARPE-19 cells [1]; ARPE19 pretreated 1 hr, then A2E 25 μM for 24 hrs in presence of drug, AlamarBlue): protected against lipofuscin
requirement of PERK / ATF4 for protection against lipofuscin (ARPE-19 cells [1]; with PERK inhibitor GSK2606414 or ATF4-shRNA, A2E 25 μM 24 hrs): needs PERK but not ATF4 to exert protection against lipofuscin
effect on LF-induced pMLKL plasma membrane localization (pMLKL): abrogated
effect on LF-induced XBP1 splicing (XBP1s, IRE1α activity) (IRE1α [2]; ARPE-19, qPCR, listed as SAL): inhibits IRE1α signaling; also recorded: abrogated
protection against phototoxic decomposition of lipid bisretinoids (ARPE-19 cells [6]): does not protect against the phototoxic decomposition of lipid bisretinoids
